Test results reported in patent US12539292B2, “BRM targeting compounds and associated methods of use” (Arvinas Operations, Inc., priority 2018, dated 2026).
Each block holds one compound with its values, some of them ahead of it.

Target: T1, BRM (Homo sapiens, UniProt P51531)
T1 construct: In-Cell Western Screen of BRM Degradation in SW1573 Cells; endogenous in cells; host or cells: SW1573
Experiment: In-cell Western screen of BRM degradation in SW1573 cells (Dmax and DC50)
Assay type: cell-based
Conditions: BRM degradation, SW1573 cells; for DC50: read-out: DC50; for Dmax: read-out: Dmax (% degraded)
How it was run: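 BRM levels were read by LI-COR in-cell Western after two-channel (800/680 nm) immunostaining of fixed, Triton-permeabilised SW1573 cells.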

T1 sequence (P51531 whole entry): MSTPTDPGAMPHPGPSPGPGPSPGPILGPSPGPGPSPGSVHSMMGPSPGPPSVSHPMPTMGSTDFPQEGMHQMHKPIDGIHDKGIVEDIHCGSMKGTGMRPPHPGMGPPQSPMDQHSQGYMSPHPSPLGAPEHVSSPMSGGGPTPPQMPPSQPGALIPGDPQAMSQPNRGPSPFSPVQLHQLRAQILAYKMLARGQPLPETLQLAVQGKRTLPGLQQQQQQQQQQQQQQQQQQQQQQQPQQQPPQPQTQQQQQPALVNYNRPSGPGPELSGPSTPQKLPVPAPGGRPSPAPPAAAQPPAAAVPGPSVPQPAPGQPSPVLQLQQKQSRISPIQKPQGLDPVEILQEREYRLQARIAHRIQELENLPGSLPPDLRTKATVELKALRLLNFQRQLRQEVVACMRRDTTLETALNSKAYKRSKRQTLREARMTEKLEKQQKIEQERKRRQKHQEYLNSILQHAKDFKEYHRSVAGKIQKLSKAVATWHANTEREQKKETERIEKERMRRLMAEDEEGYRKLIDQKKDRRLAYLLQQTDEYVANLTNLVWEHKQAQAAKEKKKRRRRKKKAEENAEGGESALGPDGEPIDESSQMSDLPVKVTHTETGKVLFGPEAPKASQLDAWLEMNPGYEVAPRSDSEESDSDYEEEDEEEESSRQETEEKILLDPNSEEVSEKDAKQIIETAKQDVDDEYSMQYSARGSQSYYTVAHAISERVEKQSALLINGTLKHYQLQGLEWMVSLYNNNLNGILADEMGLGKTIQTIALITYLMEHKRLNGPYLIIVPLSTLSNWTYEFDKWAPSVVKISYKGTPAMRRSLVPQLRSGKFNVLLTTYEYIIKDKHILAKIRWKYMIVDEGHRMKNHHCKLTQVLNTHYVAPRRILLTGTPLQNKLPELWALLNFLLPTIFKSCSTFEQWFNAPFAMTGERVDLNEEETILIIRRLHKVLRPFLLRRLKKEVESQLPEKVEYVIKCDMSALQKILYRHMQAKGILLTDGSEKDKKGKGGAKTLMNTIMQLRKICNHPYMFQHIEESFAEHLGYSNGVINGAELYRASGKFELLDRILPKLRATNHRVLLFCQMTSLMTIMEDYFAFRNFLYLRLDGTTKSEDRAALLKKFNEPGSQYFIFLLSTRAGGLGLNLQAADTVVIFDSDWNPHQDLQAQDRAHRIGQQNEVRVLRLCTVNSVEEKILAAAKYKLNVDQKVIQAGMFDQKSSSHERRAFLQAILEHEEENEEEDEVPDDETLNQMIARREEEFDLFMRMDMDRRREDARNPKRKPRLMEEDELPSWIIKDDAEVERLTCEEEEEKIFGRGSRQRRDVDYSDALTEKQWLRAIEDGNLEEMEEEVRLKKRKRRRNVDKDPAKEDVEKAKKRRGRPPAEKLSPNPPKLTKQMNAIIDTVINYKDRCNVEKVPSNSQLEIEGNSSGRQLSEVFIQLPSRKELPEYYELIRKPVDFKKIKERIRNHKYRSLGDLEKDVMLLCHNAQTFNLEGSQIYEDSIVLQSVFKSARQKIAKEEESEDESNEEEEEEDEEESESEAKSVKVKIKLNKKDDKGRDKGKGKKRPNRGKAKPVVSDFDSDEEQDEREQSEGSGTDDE

Compound: CC(C)[C@@H](C(=O)N1C[C@H](O)C[C@H]1C(=O)N[C@@H](C)c1ccc(C#N)cc1)c1cc(N2CCC(CN3CCC(O[C@H]4C[C@H](Oc5cc(N6C7CCC6CN(c6cc(-c8ccccc8O)nnc6N)C7)ccn5)C4)CC3)CC2)no1 [compound 640, (2S,4R)-1-((2R)-2-(3-(4-((4-((1r,3r)-3-((4-(3-(3-amino-6-(2-hydroxyphenyl)pyridazin-4-yl)-3,8-diazabicyclo[3.2.1]octan-8-yl)pyridin-2-yl)oxy)cyclobutoxy)piperidin-1-yl)methyl)piperidin-1-yl)isoxazol-5-yl)-3-methylbutanoyl)-N-((S)-1-(4-cyanophenyl)ethyl)-4-hydroxypyrrolidine-2-carboxamide]
DC50: < 2.5 nM | Dmax: > 75%

Compound: Cc1ncsc1-c1ccc([C@H](C)NC(=O)[C@@H]2C[C@@H](O)CN2C(=O)[C@H](c2cc(N3CCC(O)(CN4CCC(O[C@H]5C[C@H](Oc6cc(N7C8CCC7CN(c7cc(-c9ccccc9O)nnc7N)C8)ccn6)C5)CC4)CC3)no2)C(C)C)cc1 [compound 641, (2S,4R)-1-((2S)-2-(3-(4-((4-((1r,3r)-3-((4-(3-(3-amino-6-(2-hydroxyphenyl)pyridazin-4-yl)-3,8-diazabicyclo[3.2.1]octan-8-yl)pyridin-2-yl)oxy)cyclobutoxy)piperidin-1-yl)methyl)-4-hydroxypiperidin-1-yl)isoxazol-5-yl)-3-methylbutanoyl)-4-hydroxy-N-((S)-1-(4-(4-methylthiazol-5-yl)phenyl)ethyl)pyrrolidine-2-carboxamide]
DC50: > 30 nM

Compound: Cc1ncsc1-c1ccc([C@H](C)NC(=O)[C@@H]2C[C@@H](O)CN2C(=O)[C@@H](c2cc(N3CCC(CN4CCC(O[C@H]5C[C@H](CN6CCC(C(C)n7cc(-c8cc(-c9ccccc9O)nnc8N)cn7)CC6)C5)CC4)CC3)no2)C(C)C)cc1 (stereo partly drawn) [compound 642, (2S,4R)-1-((2R)-2-(3-(4-((4-((1r,3r)-3-((4-(1-(4-(3-amino-6-(2-hydroxyphenyl)pyridazin-4-yl)-1H-pyrazol-1-yl)ethyl)piperidin-1-yl)methyl)cyclobutoxy)piperidin-1-yl)methyl)piperidin-1-yl)isoxazol-5-yl)-3-methylbutanoyl)-4-hydroxy-N-((S)-1-(4-(4-methylthiazol-5-yl)phenyl)ethyl)pyrrolidine-2-carboxamide]
DC50: < 2.5 nM | Dmax: > 75%

Compound: Cc1ncsc1-c1ccc([C@H](C)NC(=O)[C@@H]2C[C@@H](O)CN2C(=O)[C@H](c2cc(N3CCC(C(C)N4CCC(O[C@H]5C[C@H](Oc6cc(N7C8CCC7CN(c7cc(-c9ccccc9O)nnc7N)C8)ccn6)C5)CC4)CC3)no2)C(C)C)cc1 (stereo partly drawn) [compound 643, (2S,4R)-1-((2S)-2-(3-(4-(1-(4-((1r,3r)-3-((4-(3-(3-amino-6-(2-hydroxyphenyl)pyridazin-4-yl)-3,8-diazabicyclo[3.2.1]octan-8-yl)pyridin-2-yl)oxy)cyclobutoxy)piperidin-1-yl)ethyl)piperidin-1-yl)isoxazol-5-yl)-3-methylbutanoyl)-4-hydroxy-N-((S)-1-(4-(4-methylthiazol-5-yl)phenyl)ethyl)pyrrolidine-2-carboxamide]
DC50: < 2.5 nM | Dmax: > 75%

Compound: Cc1ncsc1-c1ccc([C@H](C)NC(=O)[C@@H]2C[C@@H](O)CN2C(=O)[C@@H](c2cc(N3CCC(C(C)N4CCC(O[C@H]5C[C@H](Oc6cc(N7C8CCC7CN(c7cc(-c9ccccc9O)nnc7N)C8)ccn6)C5)CC4)CC3)no2)C(C)C)cc1 (stereo partly drawn) [compound 644, (2S,4R)-1-((2R)-2-(3-(4-(1-(4-((1r,3r)-3-((4-(3-(3-amino-6-(2-hydroxyphenyl)pyridazin-4-yl)-3,8-diazabicyclo[3.2.1]octan-8-yl)pyridin-2-yl)oxy)cyclobutoxy)piperidin-1-yl)ethyl)piperidin-1-yl)isoxazol-5-yl)-3-methylbutanoyl)-4-hydroxy-N-((S)-1-(4-(4-methylthiazol-5-yl)phenyl)ethyl)pyrrolidine-2-carboxamide]
DC50: < 2.5 nM | Dmax: > 75%

Compound: Cc1ncsc1-c1ccc([C@H](C)NC(=O)[C@@H]2C[C@@H](O)CN2C(=O)[C@@H](c2cc(N3CCC(O)(CN4CCC(O[C@H]5C[C@H](Oc6cc(N7C8CCC7CN(c7cc(-c9ccccc9O)nnc7N)C8)ccn6)C5)CC4)CC3)no2)C(C)C)cc1 [compound 645, (2S,4R)-1-((2R)-2-(3-(4-((4-((1r,3r)-3-((4-(3-(3-amino-6-(2-hydroxyphenyl)pyridazin-4-yl)-3,8-diazabicyclo[3.2.1]octan-8-yl)pyridin-2-yl)oxy)cyclobutoxy)piperidin-1-yl)methyl)-4-hydroxypiperidin-1-yl)isoxazol-5-yl)-3-methylbutanoyl)-4-hydroxy-N-((S)-1-(4-(4-methylthiazol-5-yl)phenyl)ethyl)pyrrolidine-2-carboxamide]
DC50: < 2.5 nM | Dmax: > 75%

Compound: Cc1ncsc1-c1ccc([C@H](C)NC(=O)[C@@H]2C[C@@H](O)CN2C(=O)[C@@H](c2cc(N3CCC4(CCN(C[C@H]5C[C@H](Oc6cc(N7C8CCC7CN(c7cc(-c9ccccc9O)nnc7N)C8)ccn6)C5)CC4)CC3)no2)C(C)C)cc1 [compound 646, (2S,4R)-1-((2R)-2-(3-(9-(((1r,3R)-3-((4-(3-(3-amino-6-(2-hydroxyphenyl)pyridazin-4-yl)-3,8-diazabicyclo[3.2.1]octan-8-yl)pyridin-2-yl)oxy)cyclobutyl)methyl)-3,9-diazaspiro[5.5]undecan-3-yl)isoxazol-5-yl)-3-methylbutanoyl)-4-hydroxy-N-((S)-1-(4-(4-methylthiazol-5-yl)phenyl)ethyl)pyrrolidine-2-carboxamide]
DC50: < 2.5 nM | Dmax: > 75%

DC50: > 30 nM
Compound: Cc1ncsc1-c1ccc([C@H](C)NC(=O)[C@@H]2C[C@@H](O)CN2C(=O)[C@H](c2cc(N3CCC4(CCN(C[C@H]5C[C@H](Oc6cc(N7C8CCC7CN(c7cc(-c9ccccc9O)nnc7N)C8)ccn6)C5)CC4)CC3)no2)C(C)C)cc1 [compound 647, (2S,4R)-1-((2S)-2-(3-(9-(((1r,3S)-3-((4-(3-(3-amino-6-(2-hydroxyphenyl)pyridazin-4-yl)-3,8-diazabicyclo[3.2.1]octan-8-yl)pyridin-2-yl)oxy)cyclobutyl)methyl)-3,9-diazaspiro[5.5]undecan-3-yl)isoxazol-5-yl)-3-methylbutanoyl)-4-hydroxy-N-((S)-1-(4-(4-methylthiazol-5-yl)phenyl)ethyl)pyrrolidine-2-carboxamide]

Compound: Cc1ncsc1-c1ccc([C@H](C)NC(=O)[C@@H]2C[C@@H](O)CN2C(=O)[C@@H](c2cc(N3CCC(CN4CCC(O[C@H]5C[C@H](N6CCC(C(C)n7cc(-c8cc(-c9ccccc9O)nnc8N)cn7)CC6)C5)CC4)CC3)no2)C(C)C)cc1 (stereo partly drawn) [compound 648, (2S,4R)-1-((2R)-2-(3-(4-((4-((1r,3r)-3-(4-(1-(4-(3-amino-6-(2-hydroxyphenyl)pyridazin-4-yl)-1H-pyrazol-1-yl)ethyl)piperidin-1-yl)cyclobutoxy)piperidin-1-yl)methyl)piperidin-1-yl)isoxazol-5-yl)-3-methylbutanoyl)-4-hydroxy-N-((S)-1-(4-(4-methylthiazol-5-yl)phenyl)ethyl)pyrrolidine-2-carboxamide]
DC50: < 2.5 nM | Dmax: > 75%

Compound: Cc1ncsc1-c1ccc([C@H](C)NC(=O)[C@@H]2C[C@@H](O)CN2C(=O)[C@H](c2cc(N3CCC4(CC3)CC(CN3CCC(O[C@H]5C[C@H](Oc6cc(N7C8CCC7CN(c7cc(-c9ccccc9O)nnc7N)C8)ccn6)C5)CC3)C4)no2)C(C)C)cc1 [compound 649, (2S,4R)-1-((2S)-2-(3-(2-((4-((1r,3r)-3-((4-(3-(3-amino-6-(2-hydroxyphenyl)pyridazin-4-yl)-3,8-diazabicyclo[3.2.1]octan-8-yl)pyridin-2-yl)oxy)cyclobutoxy)piperidin-1-yl)methyl)-7-azaspiro[3.5]nonan-7-yl)isoxazol-5-yl)-3-methylbutanoyl)-4-hydroxy-N-((S)-1-(4-(4-methylthiazol-5-yl)phenyl)ethyl)pyrrolidine-2-carboxamide]
DC50: > 30 nM

Compound: Cc1ncsc1-c1ccc([C@H](C)NC(=O)[C@@H]2C[C@@H](O)CN2C(=O)[C@@H](c2cc(N3CCC4(CC3)CC(CN3CCC(O[C@H]5C[C@H](Oc6cc(N7C8CCC7CN(c7cc(-c9ccccc9O)nnc7N)C8)ccn6)C5)CC3)C4)no2)C(C)C)cc1 [compound 650, (2S,4R)-1-((2R)-2-(3-(2-((4-((1r,3r)-3-((4-(3-(3-amino-6-(2-hydroxyphenyl)pyridazin-4-yl)-3,8-diazabicyclo[3.2.1]octan-8-yl)pyridin-2-yl)oxy)cyclobutoxy)piperidin-1-yl)methyl)-7-azaspiro[3.5]nonan-7-yl)isoxazol-5-yl)-3-methylbutanoyl)-4-hydroxy-N-((S)-1-(4-(4-methylthiazol-5-yl)phenyl)ethyl)pyrrolidine-2-carboxamide]
DC50: > 30 nM

Compound: Cc1ncsc1-c1ccc([C@H](C)NC(=O)[C@@H]2C[C@@H](O)CN2C(=O)[C@H](c2cc(N3CCC(CN4CCC(O[C@H]5C[C@H](Oc6cc(N7C8CCC7CN(c7cc(-c9ccccc9O)nnc7N)C8)ccn6)C5)CC4)CC3)no2)C(C)C)cc1F [compound 651, (2S,4R)-1-((2S)-2-(3-(4-((4-((1r,3r)-3-((4-(3-(3-amino-6-(2-hydroxyphenyl)pyridazin-4-yl)-3,8-diazabicyclo[3.2.1]octan-8-yl)pyridin-2-yl)oxy)cyclobutoxy)piperidin-1-yl)methyl)piperidin-1-yl)isoxazol-5-yl)-3-methylbutanoyl)-N-((S)-1-(3-fluoro-4-(4-methylthiazol-5-yl)phenyl)ethyl)-4-hydroxypyrrolidine-2-carboxamide]
DC50: > 30 nM
